Assay results from US6953814B2, “Natural insect repellant” (Stratacor, Inc., priority 1997, dated 2005).
Like-named read-outs stand apart in the source and are kept apart here.

Assays:
[1] = Vapor pressure; type: physicochemical; conditions: for Vol. (vapor pressure), (est): at 125° C., estimated or extrapolated from literature values
[2] = system: Aedes aegypti mosquitoes; experiment: Mosquito repellency on skin (olfactometer, human forearm); type: in vivo; conditions: on skin
[3] = system: Aedes aegypti mosquitoes; experiment: Mosquito repellency on gauze or polyester film (olfactometer); type: in vivo; conditions: Aedes aegypti, 0.05 h, cotton gauze or polyester film, 0.3 mg/cm^2, 3 minutes after application; read-out: Percent Repellency
Text: Olfactometer: A Fiensod and […] olfactometer, as modified by Bowen and Davis, measured the host-oriented flight response of female mosquitoes to volatile host emanations (Feinsod, F. M., and […]; An olfactometer for measuring host-seeking behavior of female Aedes aegypti (Diptera: Culicidae); J. Med. Entomol., 15: 282-285, 1979). The olfactometer (approximately 38 cm high) consisted of an upper and lower screened chamber with a closure between the chambers (FIG. 8). A fan placed above the upper chamber drew air through the apparatus at approximately 0.2 m/s. A temperature and humidity controlled chamber (5' wide by 6' long by 8' high) was constructed to house the test subject and the olfactometer. Rearing of Mosquitoes: A second environmental chamber, maintained at 27° C. and 80% humidity, was dedicated to the rearing of Aedes aegypti mosquitoes. […] Assays for Attraction of Mosquitoes to Human Subjects: A group of 30 volunteers, consisting of 14 females and 16 males and ranging in age from 24 to 68 years, was selected from the surrounding civilian population. Individuals were tested for their ability to attract Aedes aegypti mosquitoes contained in the olfactometer. Tests were conducted at a temperature of 27° C. and 50% relative humidity. […] A small fan was placed on top of the upper chamber to cause an air flow from the lower chamber to the upper chamber. A trial began when the closure between the upper and lower chamber was opened in the absence of a human host. […] This trial was repeated twice during a test session to obtain three replicates. Two additional test sessions, at time intervals of at least 1 week, were conducted to obtain at least 8-9 replicates for each of 24 subjects. Of the remaining 6 subjects, 3 were tested on two separate occasions for a total of 6 replicates per subject; 3 were tested on one occasion for a total of 3 replicates per subject. A total of 254 tests were conducted. Test compounds were dissolved in acetone or ethanol at a concentration of 150 mg/5 cc. Ethanol solutions of carboxylic acids were prepared just prior to use. Five hundred microliters of these solutions were applied to a 50 cm^2 circular area of a single layer of cotton gauze (Curity Curad gauze, Futuro Inc., Milford, Ohio) or nonwoven polyester film ([…], Inc.). The resultant dose was 0.3 mg/cm^2. […] The cup was attached to the bottom of the olfactometer (FIG. 8) so that air flowed through the stainless steel screen of the cup, through the treated gauze or film, and through the olfactometer. A volunteer's forearm was placed under the cup, so that air drawn into the cup and olfactometer was laden with human skin emanations. Tests were conducted as described in the preceding paragraph, “Assays for attraction of mosquitoes to human subjects”. Percent repellency was determined from the fraction of mosquitoes entering the lower chamber over a seven minute period. This assay is an approximate measure of the intrinsic repellency of a compound. Good repellency in this test is a necessary, but not sufficient, condition for good repellency on skin. Mosquito repellents must produce a vapor over the skin surface to confuse the host seeking behavior of the insect. However, volatilization must not be so great that the repellent action rapidly dissipates. Since volatilization from the skin will be different from an inanimate surface, skin tests are necessary to confirm that a compound will be a practical repellent.

[4] = system: Aedes aegypti mosquitoes; experiment: Mosquito repellency on skin (olfactometer, human forearm); type: in vivo; conditions: for repellency immediately after application to skin, compared to DEET: FIG. 4; for Percent Repellency 2 h: 0.3 mg/cm^2, 2 h after application; for Percent Repellency 4 h: 0.3 mg/cm^2, 4 h after application
Text: Olfactometer: A Fiensod and Spielman olfactometer, as modified by Bowen and Davis, measured the host-oriented flight response of female mosquitoes to volatile host emanations (Feinsod, F. M., and A. Spielman; An olfactometer for measuring host-seeking behavior of female Aedes aegypti (Diptera: Culicidae); J. Med. Entomol., 15: 282-285, 1979). The olfactometer (approximately 38 cm high) consisted of an upper and lower screened chamber with a closure between the chambers (FIG. 8). A fan placed above the upper chamber drew air through the apparatus at approximately 0.2 m/s. A temperature and humidity controlled chamber (5′ wide by 6′ long by 8′ high) was constructed to house the test subject and the olfactometer.
Rearing of Mosquitoes: A second environmental chamber, maintained at 27° C. and 80% humidity, was dedicated to the rearing of Aedes aegypti mosquitoes. Routine shipments of eggs (American Biological Supply, Gainesville, Fla.) were used to maintain a continuous supply of adult 5-10 day old mosquitoes.
Assays for Attraction of Mosquitoes to Human Subjects: A group of 30 volunteers, consisting of 14 females and 16 males and ranging in age from 24 to 68 years, was selected from the surrounding civilian population. Individuals were tested for their ability to attract Aedes aegypti mosquitoes contained in the olfactometer. Tests were conducted at a temperature of 27° C. and 50% relative humidity. For each trial 15 avid adult female Aedes aegypti mosquitoes (5-10 days post-emergence) were placed in the upper chamber. A small fan was placed on top of the upper chamber to cause an air flow from the lower chamber to the upper chamber. A trial began when the closure between the upper and lower chamber was opened in the absence of a human host. The number of mosquitoes entering the lower chamber within a 3 minute period was recorded. The volunteer then placed his or her arm beneath the lower chamber and the number of mosquitoes flying from the upper chamber to the lower chamber was recorded for the time intervals 0-1, 1-3, 3-5 and 5-7 minutes. This trial was repeated twice during a test session to obtain three replicates. Two additional test sessions, at time intervals of at least 1 week, were conducted to obtain at least 8-9 replicates for each of 24 subjects. Of the remaining 6 subjects, 3 were tested on two separate occasions for a total of 6 replicates per subject; 3 were tested on one occasion for a total of 3 replicates per subject. A total of 254 tests were conducted.
Test compounds were dissolved in acetone or ethanol at a concentration of 300 mg/5 cc. Ethanol solutions of carboxylic acids were prepared just prior to use. Three hundred and fifty microliters of these solutions were applied to a 70 cm^2 rectangular area of the forearm. The resultant dose was 0.3 mg/cm^2. The repellent treated area was allowed to dry for 5 minutes prior to test. The treated skin area was placed under the olfactometer and tests were conducted as described in the preceding paragraph, “Assays for attraction of mosquitoes to human subjects”. Percent repellency was determined from the fraction of mosquitoes entering the lower chamber over a seven minute period.
A commercial formulation of DEET (Skintastic, S. C. Johnson, Racine,) was applied to a 100 cm^2 area on the forearm of 1 volunteer (subject 02) to give a dose of 0.3 mg/cm^2 of DEET. A formulation of C8C9C10 (5% octanoic, 5% nonanoic, 5% decanoic in Dow Corning 345 volatile silicone fluid) was applied to a 100 cm^2 on the subject's other arm to give a dose of 0.3 mg/cm^2 total acids. Application sites were placed under the olfactometer at 1, 2 and 4 hours after treatment. Untreated areas on each arm were placed under the olfactometer at the completion of the treated area tests to check the avidity of the mosquitoes. Tests were done on four separate test days. […]

[5] = system: Aedes aegypti; conditions: King 1954; cited from earlier work
[6] = system: Aedes aegypti mosquitoes; conditions: 0.31 mg/cm^2; cited from earlier work
[7] = cited from earlier work
[8] = cited from earlier work; remark: listed apart in the source
[9] = system: malaria mosquito (Anopheles quadrimaculatus Say); conditions: human skin, approximately 2 mg/cm^2, time until two bites; cited from earlier work
[10] = rabbit, in vivo; cited from earlier work
[11] = system: yellow fever mosquito (Aedes aegypti (L.)); conditions: human skin, approximately 2 mg/cm^2, time until two bites; DEET from Gilbert 1957; cited from earlier work
[12] = system: Aedes aegypti; conditions: 0.5 mg/cm^2 on the skin of man; cited from earlier work
[13] = system: mosquitoes; conditions: Hill et al. 1979; cited from earlier work

CCCCCC(C)=CC(=O)O [3-Methyl-2-octenoic acid]
Vol. (vapor pressure), (est) [1]: 6 (est) mm Hg
Percent Repellency 2 h ([2]; 0.6 mg/cm^2, 2 h after application): 73% (1)
Percent Repellency 4 h ([2]; 0.6 mg/cm^2, 4 h after application): 40 (1) %
pest or weed control at 0.3 mg/cm2 [3]: 95%
repellency immediately after application to skin, compared to DEET [4]: less repellent
Percent Repellency 2 h ([4]; on skin): 40 ± 5 (3) %
Percent Repellency 4 h ([4]; on skin): 47 ± 21%
Percent Repellency 8 h ([4]; on skin, 0.3 mg/cm^2, 8 h after application): 60%

CCC=CC(=O)O [2-Pentenoic acid, 2-Pentenoic Acid]
Vol. (vapor pressure), (est) [1]: 92 mm Hg
pest or weed control at 0.3 mg/cm2 [3]: 100%

CC(C)OC(=O)CCCCC(=O)OC(C)C [diisopropyl adipate]
repellent to Aedes aegypti [5]: repellent

CCCCC/C=C\C/C=C\C/C=C\C/C=C\CCCC(=O)O [Arachidonic Acid]
Protection time against Aedes aegypti mosquitoes [6]: <15 min

CCC(C)CC(=O)O (centres unmarked) [3-Methylpentanoic Acid]
Vol. (vapor pressure), (est) [1]: 49.5 mm Hg
pest or weed control at 0.3 mg/cm2 [3]: 43 ± 14%

CCCCCCCC/C=C\CCCCCCCC(=O)O [Oleic Acid]
Protection time against Aedes aegypti mosquitoes [6]: <15 min

CCCCCCC=CC(=O)O [2-Nonenoic Acid]
Protection time against Aedes aegypti mosquitoes [6]: 120 min

CCCCCCCCC(=O)O [Nonanoic acid]
Erythema ([7]; in vivo): Erythema was observed
Irritation or sensitization reactions ([8]; in vivo): no irritation or sensitization reactions
Protection time against malaria mosquitoes [9]: 31 to 60 min
Skin irritation [10]: moderate irritation
pest or weed control at 0.3 mg/cm2 [3]: 93 to 100%
Protection time against yellow fever mosquitoes [11]: 180+ min.
repellency two hours after skin application, ranking ([4]; FIG. 5): highest repellency
Percent Repellency 2 h ([4]; on skin): 66 (1) %
Percent Repellency 4 h ([4]; on skin): 47 (1) %

C=CCCCCCCCCC(=O)O [Undecylenic Acid]
Protection time against Aedes aegypti mosquitoes [6]: 210 min

CCCCCCCC=CC(=O)O [2-Decenoic acid]
Vol. (vapor pressure), (est) [1]: 2.4 (est) mm Hg
Protection time against Aedes aegypti mosquitoes [6]: <15 min
Protection Time [12]: 6 ± 4 h

CCCCCCC(=O)O [Ethanthic, ethanthic acid, reference compound]
Protection time against malaria mosquitoes [9]: 90+ min.
Protection time against yellow fever mosquitoes [11]: 121 to 180 min

CCCC(O)C(CC)CO (centres unmarked) [2-Ethyl-1,3-hexanediol, reference compound]
volatility relative to DEET ([1]; from vapor pressures of Table 7): twice as volatile as DEET
protects against mosquitoes for [13]: 3 to 4 h

CCCCC/C=C\C/C=C\CCCCCCCC(=O)O [Linoleic Acid]
Protection time against Aedes aegypti mosquitoes [6]: <15 min

CCCCCCCC(=O)O [Octanoic acid]
Erythema ([7]; repeated applications of 0.5 M propanol solutions, occlusive, human males): Erythema was observed
Irritation or sensitization reactions ([8]; 1% in petrolatum, skin of human subjects): no irritation or sensitization reactions
Skin irritation [10]: moderate to severe irritation
pest or weed control at 0.3 mg/cm2 [3]: 87 ± 1%
repellency immediately after application to skin, compared to DEET [4]: comparable to DEET
Percent Repellency 2 h ([4]; on skin): 36 (1) %
Percent Repellency 2 h ([4]; on skin, listed as octanoic acid): 36%

CCCCCCCCCCCC(=O)O [Dodecanoic acid]
Vol. (vapor pressure), (est) [1]: 0.57 mm Hg

O=C1CCCCN1 [Valerolactam]
pest or weed control at 0.3 mg/cm2 [3]: 20%

CCCCCC=CC(=O)O [2-Octenoic acid, 2-Octenoic Acid]
Vol. (vapor pressure), (est) [1]: 10.8 mm Hg
pest or weed control at 0.3 mg/cm2 [3]: 97 ± 5%
repellency immediately after application to skin, compared to DEET [4]: less repellent
Percent Repellency 2 h ([4]; on skin): 29 (1) %
Percent Repellency 4 h ([4]; on skin): 27 (1) %

CCCCCCCCCC=CC(=O)O [2-Dodecenoic Acid]
Protection time against Aedes aegypti mosquitoes [6]: 120 min

CCCCCCCCCCC(=O)O [Undecanoic acid]
Vol. (vapor pressure), (est) [1]: 1.5 (est) mm Hg
Protection time against malaria mosquitoes [9]: 90+ min.
pest or weed control at 0.3 mg/cm2 [3]: 93 to 100%
Protection time against yellow fever mosquitoes [11]: 300+ min.

CCCCCCCCCC(=O)O [Decanoic acid]
Protection time against malaria mosquitoes [9]: 61 to 90 min
Skin irritation [10]: moderate to severe irritation
pest or weed control at 0.3 mg/cm2 [3]: 93 to 100%
Protection time against yellow fever mosquitoes [11]: 300+ min.
Percent Repellency 2 h ([4]; on skin): 53 (1) %
Percent Repellency 4 h ([4]; on skin): 73 (1) %

O=C(c1ccccc1)c1ccccc1 [benzophenone]
repellent to Aedes aegypti [5]: repellent

CCC(C)=CC(=O)O [3-Methyl-2-pentenoic acid, 3-Methyl-2-pentenoic Acid]
Vol. (vapor pressure), (est) [1]: 49.5 mm Hg
pest or weed control at 0.3 mg/cm2 [3]: 65%
